Patent US20050244486A1, “Topical methadone compositions and methods for using the same” (priority 2004, published 2005)
Values after ≈ are worked out from the molar mass of the structure shown. Values joined by “and” are separate entries in the source; they are usually repeats but may differ in a detail not shown here. Equal entries are not always repeated. Where two headings read alike, the source gives them in different places.

Assays:
[1] = Solubility of methadone in different solvents; assay type: physicochemical
Protocol: In this experiment, the solubility of methadone in a number of different solvents was evaluated. The solvents evaluated were mineral oil, N-methyl-2-pyrrolidone, diisopropyl adipate, DEET, PEG, Di (propylene glycol), dehydrated alcohol and water. […] The stability of the solutions was also evaluated.

[2] = Pharmacokinetic study A: topical Methadone-DEET solution, human plasma; settings: 10% solution in DEET, one-day application to the skin
[3] = Study 1: concentrations of methadone in rat plasma, topical administration versus intravenous injection; assay type: in vivo
Protocol: The test article was administered intravenously (IV) through the tail vein to animals in Group A. The injection was performed slowly. A gauze pad (1×1 cm) Saturated with 0.2 mL of the appropriate test article was applied to the clipped site on the back of the animals in Groups 2 and 3. The gauze pad was secured by occlusive tape. The animal was wrapped in gauze, which was held in place with Zonas porous tape.
Blood Collection: Blood (0.5 mL) was collected into sodium heparin tubes at the appropriate time points. The samples were centrifuged at approximately 2800 rpm at 2-8 degrees Celsius for approximately 15 minutes. Plasma was collected.

[4] = Pharmacokinetic study B: methadone patch, human plasma; assay type: in vivo; settings: topical, Study B: 5 × 5 cm SIS patch (Methadone 10 weight %), 25 mg Methadone free base, applied 12 hours, left leg inner side above knee, 55 kg person, read-out: Concentrations of Methadone in Human Plasma Samples

In the case of `CCC(=O)C(CC(C)N(C)C)(c1ccccc1)c1ccccc1` (stereo not drawn) [Methadone, 6-dimethylamino-4,4-diphenyl-3-hepatone], the solubility at 24 h ([1]; organic solvent or mixture, Dehydrated Alcohol, 24 hour) is reported as 115 mg/mL (≈ 372 mM), the solubility at 48 h ([1]; organic solvent or mixture, Dehydrated Alcohol, 48 hour) is reported as 118 mg/mL (≈ 381 mM) and the solubility at 3 h ([1]; organic solvent or mixture, Di(propylene glycol), 3 hour) is reported as 56.2 mg/mL (≈ 182 mM). The solubility at 6 h ([1]; organic solvent or mixture, Di(propylene glycol), 6 hour) was 56.5 mg/mL (≈ 183 mM), the solubility at 24 h ([1]; organic solvent or mixture, Di(propylene glycol), 24 hour) was 54.9 mg/mL (≈ 177 mM) and the solubility at 48 h ([1]; organic solvent or mixture, Di(propylene glycol), 48 hour) was 58.7 mg/mL (≈ 190 mM). The solubility at 3 h ([1]; organic solvent or mixture, N-methyl-2-pyrrolidone, 3 hour) was 262 mg/mL (≈ 847 mM), the solubility at 6 h ([1]; organic solvent or mixture, N-methyl-2-pyrrolidone, 6 hour) was 270 mg/mL (≈ 873 mM) and the solubility at 24 h ([1]; organic solvent or mixture, N-methyl-2-pyrrolidone, 24 hour) was 347 mg/mL (≈ 1120 mM). The solubility at 48 h ([1]; organic solvent or mixture, N-methyl-2-pyrrolidone, 48 hour) was 342 mg/mL (≈ 1110 mM), the solubility at 3 h ([1]; organic solvent or mixture, PEG - 400, 3 hour) was 39.7 mg/mL (≈ 128 mM) and the solubility at 6 h ([1]; organic solvent or mixture, PEG - 400, 6 hour) was 39.9 mg/mL (≈ 129 mM). It also gave a solubility at 24 h ([1]; organic solvent or mixture, PEG - 400, 24 hour) of 38.8 mg/mL (≈ 125 mM), a solubility at 48 h ([1]; organic solvent or mixture, PEG - 400, 48 hour) of 36.8 mg/mL (≈ 119 mM) and a solubility at 24 h ([1]; organic solvent or mixture, diisopropyl adipate, 24 hour) of 360 mg/mL (≈ 1160 mM). It also gave a solubility at 3 h ([1]; thermodynamic from solid, water, 3 hour) of 0.217 mg/mL (≈ 0.701 mM), a solubility at 6 h ([1]; thermodynamic from solid, water, 6 hour) of 0.228 mg/mL (≈ 0.737 mM) and a solubility at 24 h ([1]; thermodynamic from solid, water, 24 hour) of 0.224 mg/mL (≈ 0.724 mM). For the same compound, the solubility at 48 h ([1]; thermodynamic from solid, water, 48 hour) was 0.225 mg/mL (≈ 0.727 mM), the “Irritation of human skin by topical methadone composition” value [2] was “lack of irritation” and the “Irritation of rat skin by topical application” value ([3]; Study 1, topical methadone solutions on rat skin over the application time) was “non-irritating”. The “Concentrations of Methadone in Rat Plasma Samples” value (from here on “Concentrations of Methadone”) ([3]; Study 1 Group A: I.V. tail vein, 0.25 mL Test Article 1 (0.5 mg/mL Methadone-Saline Solution), 2 min, individual rats A1-A3) was 67.8 ng/mL and 69.5 ng/mL, the “Concentrations of Methadone” value ([3]; Study 1 Group A: I.V. tail vein, 0.25 mL Test Article 1 (0.5 mg/mL Methadone-Saline Solution), 5 min, individual rats A1-A3) was 68.9 ng/mL and 56.0 ng/mL and the “Concentrations of Methadone” value ([3]; Study 1 Group A: I.V. tail vein, 0.25 mL Test Article 1 (0.5 mg/mL Methadone-Saline Solution), 10 min, individual rats A1-A3) was 57.6 ng/mL and 42.3 ng/mL. For the same compound, the “Concentrations of Methadone” value ([3]; Study 1 Group A: I.V. tail vein, 0.25 mL Test Article 1 (0.5 mg/mL Methadone-Saline Solution), 30 min, individual rats A1-A3) was 30.9 ng/mL and 35.8 ng/mL, the “Concentrations of Methadone” value ([3]; Study 1 Group A: I.V. tail vein, 0.25 mL Test Article 1 (0.5 mg/mL Methadone-Saline Solution), 60 min, individual rats A1-A3) was 24.5 ng/mL and 22.7 ng/mL and the “Concentrations of Methadone” value ([3]; Study 1 Group B: topical dorsal flank, 1 × 1 cm gauze pad with 0.2 mL Test Article 2 (Methadone-Diisopropyl Adipate Solution 23.9%), 10 min, individual rats B1-B3) was “BQL (below quantification limit (1.00 ng/mL))”. The “Concentrations of Methadone” value ([3]; Study 1 Group B: topical dorsal flank, 1 × 1 cm gauze pad with 0.2 mL Test Article 2 (Methadone-Diisopropyl Adipate Solution 23.9%), 20 min, individual rats B1-B3) was 3.25 ng/mL and 3.18 ng/mL, the “Concentrations of Methadone” value ([3]; Study 1 Group B: topical dorsal flank, 1 × 1 cm gauze pad with 0.2 mL Test Article 2 (Methadone-Diisopropyl Adipate Solution 23.9%), 45 min, individual rats B1-B3) was 10.4 ng/mL and 7.24 ng/mL and the “Concentrations of Methadone” value ([3]; Study 1 Group B: topical dorsal flank, 1 × 1 cm gauze pad with 0.2 mL Test Article 2 (Methadone-Diisopropyl Adipate Solution 23.9%), 60 min, individual rats B1-B3) was 15.1 ng/mL and 12.4 ng/mL. For the same compound, the “Concentrations of Methadone” value ([3]; Study 1 Group B: topical dorsal flank, 1 × 1 cm gauze pad with 0.2 mL Test Article 2 (Methadone-Diisopropyl Adipate Solution 23.9%), 120 min, individual rats B1-B3) was 44.1 ng/mL and 57.8 ng/mL and 26.2 ng/mL, the “Concentrations of Methadone” value ([3]; Study 1 Group C: topical dorsal flank, 1 × 1 cm gauze pad with 0.2 mL Test Article 3 (Methadone-DEET Solution 10%), 10 min, individual rats C1-C3) was “BQL (below quantification limit (1.00 ng/mL))” and the “Concentrations of Methadone” value ([3]; Study 1 Group C: topical dorsal flank, 1 × 1 cm gauze pad with 0.2 mL Test Article 3 (Methadone-DEET Solution 10%), 20 min, individual rats C1-C3) was “BQL (below quantification limit (1.00 ng/mL))”. For the same compound, the “Concentrations of Methadone” value ([3]; Study 1 Group C: topical dorsal flank, 1 × 1 cm gauze pad with 0.2 mL Test Article 3 (Methadone-DEET Solution 10%), 45 min, individual rats C1-C3) was 2.66 ng/mL and 2.84 ng/mL, the “Concentrations of Methadone” value ([3]; Study 1 Group C: topical dorsal flank, 1 × 1 cm gauze pad with 0.2 mL Test Article 3 (Methadone-DEET Solution 10%), 60 min, individual rats C1-C3) was 3.27 ng/mL and 4.16 ng/mL and the “Concentrations of Methadone” value ([3]; Study 1 Group C: topical dorsal flank, 1 × 1 cm gauze pad with 0.2 mL Test Article 3 (Methadone-DEET Solution 10%), 120 min, individual rats C1-C3) was 6.22 ng/mL and 5.97 ng/mL. It also gave a concentration at 45 min ([3]; rat, in vivo, 0.2 mL of 10% methadone solution, Study 1 Group C: topical dorsal flank, 1 × 1 cm gauze pad with 0.2 mL Test Article 3 (Methadone-DEET Solution 10%), 45 min, individual rats C1-C3, read-out: Concentrations of Methadone in Rat Plasma Samples) of 3.83 ng/mL, a concentration at 60 min ([3]; rat, in vivo, 0.2 mL of 10% methadone solution, Study 1 Group C: topical dorsal flank, 1 × 1 cm gauze pad with 0.2 mL Test Article 3 (Methadone-DEET Solution 10%), 60 min, individual rats C1-C3, read-out: Concentrations of Methadone in Rat Plasma Samples) of 3.88 ng/mL and a concentration at 120 min ([3]; rat, in vivo, 0.2 mL of 10% methadone solution, Study 1 Group C: topical dorsal flank, 1 × 1 cm gauze pad with 0.2 mL Test Article 3 (Methadone-DEET Solution 10%), 120 min, individual rats C1-C3, read-out: Concentrations of Methadone in Rat Plasma Samples) of 6.85 ng/mL. For the same compound, the concentration at 10 min ([3]; rat, in vivo, 0.2 mL of 23.9% methadone solution, Study 1 Group B: topical dorsal flank, 1 × 1 cm gauze pad with 0.2 mL Test Article 2 (Methadone-Diisopropyl Adipate Solution 23.9%), 10 min, individual rats B1-B3, read-out: Concentrations of Methadone in Rat Plasma Samples) was 3.02 ng/mL, the concentration at 20 min ([3]; rat, in vivo, 0.2 mL of 23.9% methadone-diisopropyl adipate solution, Study 1 Group B: topical dorsal flank, 1 × 1 cm gauze pad with 0.2 mL Test Article 2 (Methadone-Diisopropyl Adipate Solution 23.9%), 20 min, individual rats B1-B3, read-out: Concentrations of Methadone in Rat Plasma Samples) was 4.14 ng/mL and the concentration at 45 min ([3]; rat, in vivo, 0.2 mL of 23.9% methadone-diisopropyl adipate solution, Study 1 Group B: topical dorsal flank, 1 × 1 cm gauze pad with 0.2 mL Test Article 2 (Methadone-Diisopropyl Adipate Solution 23.9%), 45 min, individual rats B1-B3, read-out: Concentrations of Methadone in Rat Plasma Samples) was 11.5 ng/mL. For the same compound, the concentration at 60 min ([3]; rat, in vivo, 0.2 mL of 23.9% methadone-diisopropyl adipate solution, Study 1 Group B: topical dorsal flank, 1 × 1 cm gauze pad with 0.2 mL Test Article 2 (Methadone-Diisopropyl Adipate Solution 23.9%), 60 min, individual rats B1-B3, read-out: Concentrations of Methadone in Rat Plasma Samples) was 11.3 ng/mL, the concentration at 2 min ([3]; rat, in vivo, iv, 0.125 mg/animal, Study 1 Group A: I.V. tail vein, 0.25 mL Test Article 1 (0.5 mg/mL Methadone-Saline Solution), 2 min, individual rats A1-A3, read-out: Concentrations of Methadone in Rat Plasma Samples) was 73.5 ng/mL and the concentration at 5 min ([3]; rat, in vivo, iv, 0.125 mg/animal, Study 1 Group A: I.V. tail vein, 0.25 mL Test Article 1 (0.5 mg/mL Methadone-Saline Solution), 5 min, individual rats A1-A3, read-out: Concentrations of Methadone in Rat Plasma Samples) was 68.7 ng/mL. For the same compound, the concentration at 10 min ([3]; rat, in vivo, iv, 0.125 mg/animal, Study 1 Group A: I.V. tail vein, 0.25 mL Test Article 1 (0.5 mg/mL Methadone-Saline Solution), 10 min, individual rats A1-A3, read-out: Concentrations of Methadone in Rat Plasma Samples) was 61.8 ng/mL, the concentration at 30 min ([3]; rat, in vivo, iv, 0.125 mg/animal, Study 1 Group A: I.V. tail vein, 0.25 mL Test Article 1 (0.5 mg/mL Methadone-Saline Solution), 30 min, individual rats A1-A3, read-out: Concentrations of Methadone in Rat Plasma Samples) was 35.3 ng/mL and the concentration at 60 min ([3]; rat, in vivo, iv, 0.125 mg/animal, Study 1 Group A: I.V. tail vein, 0.25 mL Test Article 1 (0.5 mg/mL Methadone-Saline Solution), 60 min, individual rats A1-A3, read-out: Concentrations of Methadone in Rat Plasma Samples) was 22.8 ng/mL. The concentration at 12 h ([4]; 12 hr) was 5.36 ng/mL, the concentration at 18 h ([4]; 18 hr) was 4.95 ng/mL and the concentration at 139.5 h ([4]; 139.5 hr) was 2.24 ng/mL.
